Experimental data taken from patent US20230183216A1, “PYRIDIZIN-3(2H)-ONE DERIVATIVES” (Gilead Sciences, Inc., priority 2021, published 2023).

Experiments:
[1] = target: T1, PARP7 (Homo sapiens, UniProt Q7Z3E1); assay: biochemical;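 also: MSD light signal quantifying PARP7 captured by a plate-immobilized probe, read after 1.5 h equilibration plus 1.5 h with SULFO-TAG anti-GST antibody at room temperature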
T1 sequence (Q7Z3E1 1-657): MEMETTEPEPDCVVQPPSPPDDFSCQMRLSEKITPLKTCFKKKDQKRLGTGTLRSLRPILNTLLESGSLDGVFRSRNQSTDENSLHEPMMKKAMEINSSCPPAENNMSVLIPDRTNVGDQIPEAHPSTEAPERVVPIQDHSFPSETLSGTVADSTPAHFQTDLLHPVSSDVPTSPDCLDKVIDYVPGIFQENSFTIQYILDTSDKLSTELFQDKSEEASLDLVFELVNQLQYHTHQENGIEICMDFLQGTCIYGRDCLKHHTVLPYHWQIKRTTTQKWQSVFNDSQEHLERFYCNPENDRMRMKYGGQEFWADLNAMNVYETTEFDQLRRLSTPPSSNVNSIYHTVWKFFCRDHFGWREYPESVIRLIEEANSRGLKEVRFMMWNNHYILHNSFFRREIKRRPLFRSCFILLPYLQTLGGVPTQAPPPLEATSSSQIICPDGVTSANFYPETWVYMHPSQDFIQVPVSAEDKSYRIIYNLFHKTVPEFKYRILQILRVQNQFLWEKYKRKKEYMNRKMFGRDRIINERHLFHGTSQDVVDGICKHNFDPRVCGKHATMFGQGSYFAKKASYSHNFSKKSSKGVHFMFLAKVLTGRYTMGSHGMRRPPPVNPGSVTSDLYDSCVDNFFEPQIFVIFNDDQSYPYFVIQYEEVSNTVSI
Description: Probe Displacement Assay for PARP7 Displacement of a biotinylated probe (RBN011147; Wigle et al., Cell Chemical Biology, 2020, pp. 877-887) from the PARP7 NAD+-binding site was measured in vitro using a Mesoscale Discovery electrochemiluminescent assay. […] Next, 10 μl of 10 nM PARP7 protein incubated for 1 hour at room temperature with a dose response curve of each test compound in a Greiner LDV polypropylene plate (#781201) is added to the MSD plate containing the immobilized probe. The interaction is allowed to reach equilibrium for 1.5 hours, and then 10 ul of SULFO-TAG labeled anti-GST antibody (Cat #R32AA-1) is added to each well and allowed to incubate for an additional 1.5 hours at room temperature. Finally, 10 μl of MSD read buffer T (4×, Cat. #R92C-1) is added to each well using a Bravo liquid handler to prevent air bubbles in the wells, and the plates are subsequently read in an MSD instrument. Light intensity is then measured to quantify the amount of PARP7 bound to the immobilized probe on the plate.

[2] = tested on: STAT1 (phosphorylated at Tyr701) in NCI-H1373 cells; assay: Phospho-STAT1 (Tyr701) LANCE Ultra TR-FRET Detection Assay; type: cell-based; settings: Homo sapiens, 48 hours, induction of pSTAT1, normalized to 10 uM positive control and DMSO, 4-parameter fit, read-out: NH1373 pSTAT1 EC50
Procedure, shortened: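 Endogenous STAT1 Tyr701 phosphorylation induced by compound was measured after seeding 30,000 cells/well onto compound-spotted plates and incubating 48 h at 37 °C, 5% CO2. Lysates were incubated with a sandwich antibody pair overnight at room temperature, and TR-FRET emission was read at 665 and 620 nm.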

IC50 [1] [nM] | SMILES | EC50 [2] [nM]
0.232 | O=C(CCC1Cc2ccccc2N1c1cc(C(F)(F)F)c(=O)[nH]n1)N1CCN(c2ncc(C(F)(F)F)cn2)CC1 (centres unmarked) [Example 47, 3-[2-[3-oxo-3-[4-[5-(trifluoromethyl)pyrimidin-2-yl]piperazin-1-yl]propyl]indolin-1-yl]-5-(trifluoromethyl)-1H-pyridazin-6-one] | 179
1.1 | O=C([C@@H]1Cc2ccccc2N1c1cc(C(F)(F)F)c(=O)[nH]n1)N1CCN(c2ncc(C(F)(F)F)cn2)CC1 [Example 49, 5-(trifluoromethyl)-3-[(2S)-2-[4-[5-(trifluoromethyl)pyrimidin-2-yl]piperazine-1-carbonyl]indolin-1-yl]-1H-pyridazin-6-one] | 858
0.357 | O=C(CC[C@@H]1Cc2ccccc2N1c1cc(C(F)(F)F)c(=O)[nH]n1)N1CCN(c2ncc(C(F)(F)F)cn2)CC1 [Example 50, 3-[(2R)-2-[3-oxo-3-[4-[5-(trifluoromethyl)pyrimidin-2-yl]piperazin-1-yl]propyl]indolin-1-yl]-5-(trifluoromethyl)-1H-pyridazin-6-one] | 221
0.165 | [2H]C1([2H])N(C(=O)CCCNc2cc(C(F)(F)F)c(=O)[nH]n2)C([2H])([2H])C([2H])([2H])N(c2ncc(C(F)(F)F)cn2)C1([2H])[2H] [Example 51, 3-[[4-[2,2,3,3,5,5,6,6-octadeuterio-4-[5-(trifluoromethyl)pyrimidin-2-yl]piperazin-1-yl]-4-oxo-butyl]amino]-5-(trifluoromethyl)-1H-pyridazin-6-one] | 123
0.359 | [2H]C1([2H])N(C(=O)CCCCc2cc(C(F)(F)F)c(=O)[nH]n2)C([2H])([2H])C([2H])([2H])N(c2ncc(C(F)(F)F)cn2)C1([2H])[2H] [Example 52, 3-[5-[2,2,3,3,5,5,6,6-octadeuterio-4-[5-(trifluoromethyl)pyrimidin-2-yl]piperazin-1-yl]-5-oxo-pentyl]-5-(trifluoromethyl)-1H-pyridazin-6-one] | 209
0.34 | O=C(CCCNc1cc(C(F)(F)F)c(=O)[nH]n1)N1CCN(c2ccc(C(F)(F)F)cn2)CC1 [Example 53, 3-[[4-oxo-4-[4-[5-(trifluoromethyl)-2-pyridyl]piperazin-1-yl]butyl]amino]-5-(trifluoromethyl)-1H-pyridazin-6-one] | 218
0.408 | N#Cc1ccc(N2CCN(C(=O)CCCNc3cc(C(F)(F)F)c(=O)[nH]n3)CC2)nc1 [Example 54, 6-[4-[4-[[6-oxo-5-(trifluoromethyl)-1H-pyridazin-3-yl]amino]butanoyl]piperazin-1-yl]pyridine-3-carbonitrile] | 690
0.339 | O=C([C@@H]1CCN1c1cc(C(F)(F)F)c(=O)[nH]n1)N1CCN(c2ncc(C(F)(F)F)cn2)CC1 [Example 55, 5-(trifluoromethyl)-3-[(2S)-2-[4-[5-(trifluoromethyl)pyrimidin-2-yl]piperazine-1-carbonyl]azetidin-1-yl]-1H-pyridazin-6-one] | 282
0.877 | O=C(CCCN(CC(F)F)c1cc(C(F)(F)F)c(=O)[nH]n1)N1CCN(c2ncc(C(F)(F)F)cn2)CC1 [Example 56, 3-[2,2-difluoroethyl-[4-oxo-4-[4-[5-(trifluoromethyl)pyrimidin-2-yl]piperazin-1-yl]butyl]amino]-5-(trifluoromethyl)-1H-pyridazin-6-one] | 452
4.37 | O=C([C@@H]1Cc2ccccc2CN1c1cc(C(F)(F)F)c(=O)[nH]n1)N1CCN(c2ncc(C(F)(F)F)cn2)CC1 [Example 57, 5-(trifluoromethyl)-3-[(3S)-3-[4-[5-(trifluoromethyl)pyrimidin-2-yl]piperazine-1-carbonyl]-3,4-dihydro-1H-isoquinolin-2-yl]-1H-pyridazin-6-one] | 1710
4.36 | O=C([C@@H]1CCc2ccccc2N1c1cc(C(F)(F)F)c(=O)[nH]n1)N1CCN(c2ncc(C(F)(F)F)cn2)CC1 [Example 58, 5-(trifluoromethyl)-3-[(2S)-2-[4-[5-(trifluoromethyl)pyrimidin-2-yl]piperazine-1-carbonyl]-3,4-dihydro-2H-quinolin-1-yl]-1H-pyridazin-6-one] | 2110
1.07 | O=C([C@@H]1CCC[C@H](Nc2cc(C(F)(F)F)c(=O)[nH]n2)C1)N1CCN(c2ncc(C(F)(F)F)cn2)CC1 [Example 60, 5-(trifluoromethyl)-3-[[(1S,3R)-3-[4-[5-(trifluoromethyl)pyrimidin-2-yl]piperazine-1-carbonyl]cyclohexyl]amino]-1H-pyridazin-6-one] | ≥ 10000
1.78 | O=C([C@H]1CCC[C@H](Nc2cc(C(F)(F)F)c(=O)[nH]n2)C1)N1CCN(c2ncc(C(F)(F)F)cn2)CC1 [Example 61, 5-(trifluoromethyl)-3-[[(1S,3S)-3-[4-[5-(trifluoromethyl)pyrimidin-2-yl]piperazine-1-carbonyl]cyclohexyl]amino]-1H-pyridazin-6-one] | ≥ 10000
1.29 | O=C([C@@H]1CC[C@H](Nc2cc(C(F)(F)F)c(=O)[nH]n2)C1)N1CCN(c2ncc(C(F)(F)F)cn2)CC1 [Example 62, 5-(trifluoromethyl)-3-[[(1S,3R)-3-[4-[5-(trifluoromethyl)pyrimidin-2-yl]piperazine-1-carbonyl]cyclopentyl]amino]-1H-pyridazin-6-one] | 2200
0.848 | O=C(C[C@@H]1CCN(c2cc(C(F)(F)F)c(=O)[nH]n2)C1)N1CCN(c2ncc(C(F)(F)F)cn2)CC1 [Example 67, 3-[(3S)-3-[2-oxo-2-[4-[5-(trifluoromethyl)pyrimidin-2-yl]piperazin-1-yl]ethyl]pyrrolidin-1-yl]-5-(trifluoromethyl)-1H-pyridazin-6-one] | 2270
5.66 | Cc1cc(CCCCC(=O)N2CCN(c3ncc(C(F)(F)F)cn3)CC2)n[nH]c1=O [Example 68, 5-methyl-3-[5-oxo-5-[4-[5-(trifluoromethyl)pyrimidin-2-yl]piperazin-1-yl]pentyl]-1H-pyridazin-6-one] | 1320
0.755 | O=C(CCCCc1n[nH]c(=O)c2c1CCCC2)N1CCN(c2ncc(C(F)(F)F)cn2)CC1 [Example 69, 4-[5-oxo-5-[4-[5-(trifluoromethyl)pyrimidin-2-yl]piperazin-1-yl]pentyl]-5,6,7,8-tetrahydro-2H-phthalazin-1-one] | 160
0.372 | O=C(N1CCN(c2ncc(C(F)(F)F)cn2)CC1)C1(CCNc2cc(C(F)(F)F)c(=O)[nH]n2)CC1 [Example 70, 5-(trifluoromethyl)-3-[2-[1-[4-[5-(trifluoromethyl)pyrimidin-2-yl]piperazine-1-carbonyl]cyclopropyl]ethylamino]-1H-pyridazin-6-one] | 319
1.33 | CC(C)(CCNc1cc(C(F)(F)F)c(=O)[nH]n1)C(=O)N1CCN(c2ncc(C(F)(F)F)cn2)CC1 [Example 71, 3-[[3,3-dimethyl-4-oxo-4-[4-[5-(trifluoromethyl)pyrimidin-2-yl]piperazin-1-yl]butyl]amino]-5-(trifluoromethyl)-1H-pyridazin-6-one] | 2560
